Test results reported in patent US20250115571A1, “OXOPIPERAZINE DERIVATIVES” (Inthera Bioscience AG, priority 2017, published 2025).

How the values were obtained:
A549 = assay: 9-day colony survival assay (CFA); assay type: cell-based; conditions: Homo sapiens, 216 h, A549 (lung), read-out: GI50 (50% growth inhibition)
[1] = test system: MKN45 human gastric adenocarcinoma cells; assay: Cell-derived xenograft mouse model for gastric cancer (MKN45 CDX); assay type: in vivo; conditions: 6 mg/kg, QD, p.o.
Protocol: Female BALB/c nude mice (8-9 weeks of age) were injected with MKN45 human gastric adenocarcinoma cells. The cells were inoculated subcutaneously into the left flank of 48 mice. When tumors reached a mean volume of approximately 103 mm^3, mice were randomly assigned to eight treatment groups of each six mice (TABLE 16). Body weights were measured three times weekly prior to the initiation of dosing and daily thereafter. Tumor burden was assessed by caliper measurement twice weekly. Dosing breaks were applied when tolerability issues arose (body weight loss>10%). The study was terminated four weeks post first dosing. The experiment was performed in the Crown Bioscience Ltd. (Beijing) testing facility (Ground Floor, Light Muller Building, Changping Sector of Zhongguancun Scientific Park, No. 21 Huoju Road, Changping District, Beijing, CHN).

PC3 = assay: 9-day colony survival assay (CFA); assay type: cell-based; conditions: Homo sapiens, PC-3, 216 h, PC3 (prostate), read-out: GI50 (50% growth inhibition)
HCT116 = assay: 9-day colony survival assay (CFA); assay type: cell-based; conditions: Homo sapiens, HCT-116, 216 h, HCT116 (colon), read-out: GI50 (50% growth inhibition)
CaSki = assay: 9-day colony survival assay (CFA); assay type: cell-based; conditions: Homo sapiens, Ca-Ski, 216 h, CaSki (cervix), read-out: GI50 (50% growth inhibition)
Description: Cell culture. CaSki cells (cervical cancer) were obtained from CLS GmbH, Eppelheim, Germany (cat #300145) and subcultured in ready-to-use RPMI1640 Media (CLS #820700) after addition of “Antibiotic Antimycotic Solution” (Sigma-Aldrich, St Louis, USA) at 1:100 dilution. The cells were expanded, and aliquots kept frozen in liquid nitrogen according to manufacturer's instructions; tested for mycoplasma contamination and genotyped (Microsynth AG, Balgach, Switzerland). Once thawed, aliquots were passaged every second or third day at a seed density of 20′000 cells/cm^2; and used for a maximum of twenty passages. For passaging, cell culture flasks were rinsed twice with Ca++/Mg++-free Phosphate-Buffered Saline (DPBS, CLS #860015) and incubated with Accutase (CLS #830100) for 15 min at 37° C. Cells were resuspended in a four-fold volume of ready-to-use RPMI, centrifuged at 300 g for ten minutes, the supernatant discarded and the cells resuspended in ready-to-use RPMI1640 by pipetting up and down five times with a serological pipette. Cell density was determined with a Via-1 Cassette (Chemometec, Allerod, Denmark) on a Nucleocounter NC 3000 (Chemometec). Where not stated, consumables and chemicals were purchased from well-known suppliers.
Preparation of the cells for CFA. Cell culture flasks were rinsed twice with DPBS and incubated with Accutase for 15 min at 37° C. Cells were resuspended in a four-fold volume of ready-to use RPMI, centrifuged at 300 g for ten minutes, the supernatant discarded and the cells resuspended in ready-to-use RPMI1640 by pipetting up and down ten times with a serological pipette. Cell density was determined with a Via-1 Cassette on a Nucleocounter NC 3000. The required amount of cells was first diluted 1:10 in ready-to-use RPMI; cells pipetted five times up-down with a serological pipette; and the 1:10 solution added to the final volume needed for the whole assay setup. Cells were mixed again by pipetting up and down twenty times with a serological pipette. The cell density used for the experiment was of 140 cells/ml.
Seeding. Cells were seeded row-wise in 12-well plates, while triplicates were treated column-wise (i.e. all the first rows were seeded first, then the second rows, and finally the third rows). One and a half ml cell suspension solution (a total of 210 cells) were added per well.
Treatment. Compound stock solutions were prepared at a concentration of 30 mM in 50% DMSO/50% water; and diluted in the same solution so that the volume added to the wells was of 2.5 μl and the final DMSO well concentration of 0.08%. Untreated cells (negative controls) were incubated in a) medium only; and b) 0.08% DMSO. […] The plates were swirled gently after addition of the compounds and the cells incubated for nine days at 37° C. Culture incubation solutions were replaced after five days.
Staining. Colonies were washed twice with ice-cold DPBS and fixed on ice with 1 ml ice-cold 10% methanol solution for 30 min. The methanol solution was removed and colonies incubated with 0.1% Crystal Violet/DBPS for 20 min at room temperature. The wells were rinsed consecutively with 1.5, 1, and 0.5 ml water at room temperature and let dry.
Destaining and data evaluation. […] Absorbance was measured at 600 nm with a SpectraMax M2e reader (Molecular Devices, Sunnyvale, CA, USA). Percentage of colony formation was calculated from the average of the well triplicates compared to the untreated DMSO controls after subtraction of blank values. […]

[2] = test system: hormone-refractory DU-145 human prostate cancer cells; assay: Cell-derived xenograft mouse model for prostate cancer (DU-145 CDX); assay type: in vivo; conditions: 3 mg/kg, p.o. QD × 4 weeks
Protocol: Male BALB/c nude mice (7-9 weeks of age) were injected with hormone-refractory DU-145 human prostate cancer cells. The cells were inoculated subcutaneously into the left flank of 48 mice. When tumors reached a mean volume of approximately 105 mm^3, mice were randomly assigned to eight treatment groups of each six mice (TABLE 12). Body weights were measured three times weekly prior to the initiation of dosing and daily thereafter. Tumor burden was assessed by caliper measurement three times weekly. Dosing breaks were applied when tolerability issues arose (body weight loss>10%). The study was terminated 4 weeks post first dosing. The experiment was performed in the Crown Bioscience Ltd. (Beijing) testing facility (Ground Floor, Light Muller Building, Changping Sector of Zhongguancun Scientific Park, No. 21 Huoju Road, Changping District, Beijing, CHIN).

## CC(C)C[C@@H]1NCCN([C@@H](CC(C)C)C(=O)N2CCC3(C[C@@H]2C)OCC(CN2CCC(C)CC2)CO3)C1=O (stereo partly drawn) [Compound 253, (3S)-1-[(2S)-4-methyl-1-oxo-1-[(3s,6s,8S)-8-methyl-3-[(4-methylpiperidin-1-yl)methyl]-1,5-dioxa-9-azaspiro[5.5]undec-an-9-yl]pentan-2-yl]-3-(2-methylpropyl)piper-azin-2-one (^≠), isomer Z]
A549
  GI50: 7 nM
[1]; MKN45 CDX, female BALB/c nude mice, Mean ± SEM
  Tumor Size day 29: 506.5 ± 71.0 mm^3
[1]; day 29, tumor-to-control ratio (volume/volume)
  T/C: 42.6%
PC3
  GI50: 4 nM
HCT116
  GI50: 2 nM
CaSki
  GI50: 4.5 nM
[2]
  Tumor Size day 35 (Mean ± SEM): 480 ± 49 mm^3
[2]; day 35
  T/C (tumor-to-control ratio, volume/volume): 69.3%
